For ten compounds, Ki and IC50 results are on record in BindingDB's records for PubMed 32707525 (n/a, 2020).

Broadly, the pKi is −log10 of the Ki, conventionally taken in molar units. By pIC50 is commonly meant the negative decadic logarithm of the IC50, by convention in mol/L.

pIC50, pKi: −log10 of the molar value. Square brackets hold non-standard residues; d marks the D form. Peptide text beside a SMILES is read from it. Mpa = O=C(O)CCS

CDK9/cyclin T1, sequence (O60563 whole entry, looked up): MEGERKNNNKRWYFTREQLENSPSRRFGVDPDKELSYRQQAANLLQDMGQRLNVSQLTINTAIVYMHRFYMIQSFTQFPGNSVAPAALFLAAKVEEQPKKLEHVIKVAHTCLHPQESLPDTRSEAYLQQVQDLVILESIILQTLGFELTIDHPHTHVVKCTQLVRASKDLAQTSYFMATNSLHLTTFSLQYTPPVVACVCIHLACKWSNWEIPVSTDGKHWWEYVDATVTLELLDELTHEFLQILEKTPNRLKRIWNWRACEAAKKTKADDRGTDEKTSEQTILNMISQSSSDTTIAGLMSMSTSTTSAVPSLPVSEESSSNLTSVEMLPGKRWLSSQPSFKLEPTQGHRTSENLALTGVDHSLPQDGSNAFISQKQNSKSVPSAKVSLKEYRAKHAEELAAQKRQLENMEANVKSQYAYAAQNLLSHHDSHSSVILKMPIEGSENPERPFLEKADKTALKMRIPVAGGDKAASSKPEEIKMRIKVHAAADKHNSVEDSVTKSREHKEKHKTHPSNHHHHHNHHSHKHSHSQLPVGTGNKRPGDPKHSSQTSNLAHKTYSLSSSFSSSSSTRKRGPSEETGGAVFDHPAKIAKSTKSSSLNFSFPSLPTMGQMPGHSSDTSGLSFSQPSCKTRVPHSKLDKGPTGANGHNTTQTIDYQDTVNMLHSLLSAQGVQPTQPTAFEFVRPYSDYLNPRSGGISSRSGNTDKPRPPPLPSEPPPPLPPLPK
CDK9/cyclin T1, sequence (P50750 whole entry, looked up): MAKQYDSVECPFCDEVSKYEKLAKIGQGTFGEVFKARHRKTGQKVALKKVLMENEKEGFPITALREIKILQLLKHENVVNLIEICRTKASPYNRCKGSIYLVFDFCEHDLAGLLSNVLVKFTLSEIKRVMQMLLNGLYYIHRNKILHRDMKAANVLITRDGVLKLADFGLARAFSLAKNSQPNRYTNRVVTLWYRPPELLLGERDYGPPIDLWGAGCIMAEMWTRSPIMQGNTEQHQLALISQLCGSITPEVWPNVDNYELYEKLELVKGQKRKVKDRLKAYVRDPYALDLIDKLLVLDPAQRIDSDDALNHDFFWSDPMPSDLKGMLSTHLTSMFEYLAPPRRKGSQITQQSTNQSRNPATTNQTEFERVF

One assay has as its target CDK9/cyclin T1 (Homo sapiens, UniProt O60563+P50750). The experiment in a line: Inhibition of CDK9/cyclin T1 (unknown origin) assessed as inhibition constant.
With `CC(C)C[C@H](NC(=O)[C@@H](NC(=O)c1cccc(OCc2ccccc2)c1)C(C)C)C(=O)N[C@@H](CO)C(=O)O`, the pKi is 8.48.

For the compound `CC(C)C[C@H](NC(=O)[C@@H](NC(=O)c1ccc(OCc2ccccc2)cc1)C(C)C)C(=O)N[C@@H](CO)C(=O)O`, the pKi is 8.48.

With `CC(C)C[C@H](NC(=O)[C@@H](NC(=O)CCS)C(C)C)C(=O)N[C@@H](CO)C(=O)O` ([Mpa]VLS-OH), the pKi was 8.48.

The next assay concerns the target Cyclin-dependent kinase 2/cyclin E1 (Homo sapiens, UniProt P24864+P24941). The assay is described as follows: Inhibition of CDK2/cyclin E1 (unknown origin) incubated for 60 mins in presence of ATP by ADP-Glo luminescent Kinase Assay. On the technique in general: ADP-Glo turns the ADP formed in a reaction into a luminescent signal.
Consider `CC(C)C[C@H](NC(=O)[C@@H](NC(=O)c1ccccc1OCc1ccccc1)C(C)C)C(=O)N[C@@H](CO)C(=O)O`, for which the pIC50 was 9.67.

Take `CC(C)C[C@H](NC(=O)[C@@H](NC(=O)c1ccccc1O)C(C)C)C(=O)N[C@@H](CO)C(=O)O`: the pIC50 was 9.67.

In another assay the target is CDK2/Cyclin A2 (Homo sapiens, UniProt P20248+P24941). The experiment in a line: Inhibition of CDK2/cyclin A2 (unknown origin) using histone as substrate in presence of ATP by luminescent ADP detection assay.
For `CC(C)[C@H](NC(=O)[C@H](Cc1ccccc1)NC(=O)[C@@H](Cc1ccc(O)cc1)NC(=O)CC12CC3CC(CC(C3)C1)C2)C(=O)N[C@@H](CC(N)=O)C(=O)N[C@@H](CCCN=C(N)N)C(=O)N1CCC[C@@H]1C(=O)N[C@@H](CCCN=C(N)N)C(=O)N[C@@H](CCCN=C(N)N)C(N)=O`, the pIC50 was greater than 7.70.

As to `CCOc1ccc(C[C@@H](NC(=O)CC23CC4CC(CC(C4)C2)C3)C(=O)N[C@@H](Cc2ccccc2)C(=O)N[C@H](C(=O)N[C@@H](CC(N)=O)C(=O)N[C@@H](CCCCN)C(=O)N2CCC[C@@H]2C(=O)N[C@@H](CCCN=C(N)N)C(=O)N[C@@H](CCCN=C(N)N)C(N)=O)C(C)C)cc1`, the pIC50 was greater than 7.70.

For the compound `CCCCC/N=C(/N)N/N=C/c1c[nH]c2ccc(OC(C)C)cc12`, the pIC50 is greater than 7.70.

As for `CCCCCNC(=N)N/N=C/c1c[nH]c2ccc(O)cc12`, the pIC50 is greater than 7.70.

With `CCCCC/N=C(/N)N/N=C/c1c[nH]c2ccc(OCC=C(C)C)cc12`, the pIC50 is greater than 7.70.
